Assay results published in patent publication US8785499B2 (priority 2009, dated 2014).
Where two headings read alike, the source gives them in different places.

Key:
ecNadD = ecNadD (Escherichia coli (strain K12), UniProt P0A752); experiment: biochemical; format: biochemical; conditions: for inhibition at 100 µM: read-out: INHIBITION (%) E. coli; for IC50: IC50 ecNadD
baNadD = baNadD (Bacillus anthracis, UniProt C3L5T6); experiment: biochemical; format: biochemical; conditions: for inhibition at 50 µM: read-out: INHIBITION (%) B. anthracis
Sequence of baNadD (C3L5T6 whole entry, looked up): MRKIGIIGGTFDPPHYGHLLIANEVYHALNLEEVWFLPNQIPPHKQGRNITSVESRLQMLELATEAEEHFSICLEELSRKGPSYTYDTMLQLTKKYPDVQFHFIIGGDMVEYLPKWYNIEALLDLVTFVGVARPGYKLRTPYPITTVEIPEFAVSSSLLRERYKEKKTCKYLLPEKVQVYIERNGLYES

SMILES	[…]. coli (ecNadD)	[…]. anthracis (baNadD)	also measured
COc1ccccc1OCc1nc(-c2ccc(Cl)cc2Cl)no1 [compound 299]	0%	1%	–
O=C(O)CCCCCN1C(=O)c2ccc(F)cc2C1=O [compound 024]	23%	0%	–
O=C1NC(=O)/C(=C\c2ccc(O)c(I)c2)N1 [compound 194]	1%	62%	–
O=C(Nc1ccc(Cl)cn1)c1cccnc1 [compound 279]	0%	0%	–
CC(Sc1ccccc1)C(=O)Nc1ccccc1C(=O)O (stereo not drawn) [compound 055]	15%	15%	–
COc1ccc(N/C=C2\C(=O)Nc3ccccc32)cc1 [15_25]	–	–	inhibition at 100 µM (ecNadD): 9%; inhibition at 50 µM (baNadD): 16%
Cc1ccccc1N1CC(C(=O)O)CC1=O (stereo not drawn) [compound 184]	2%	16%	–
Nc1cc(NCCCCCC(=O)O)ccc1[N+](=O)[O-] [compound 034]	21%	1%	–
Nc1c(C(=O)Nc2ccc(F)c(F)c2)sc2nc(-c3ccncc3)ccc12 [03_26]	–	–	inhibition at 100 µM (ecNadD): 7%; inhibition at 50 µM (baNadD): 23%
CC1=C(C)CC(C(=O)Nc2ccc(I)cc2)C(C(=O)O)C1 (stereo not drawn) [compound 144]	6%	65%	–
CC(=O)Nc1ccc(/N=C/c2ccc([N+](=O)[O-])cc2)cc1 [compound 230]	0%	0%	–
O=C(NCc1cccs1)C1CC(c2cccc(Br)c2)=NO1 (stereo not drawn) [compound 222]	0%	0%	–
O=C1NC(=O)/C(=C\c2ccc(C(=O)O)cc2)N1 [compound 007]	54%	34%	–
O=C(O)CCSCCc1ccncc1 [compound 193]	1%	18%	–
O=C(O)c1ccc(CSCc2ccccc2)o1 [compound 270]	0%	21%	–
CCOc1ccc(S(=O)(=O)Nc2cccnc2)cc1 [compound 126]	7%	22%	–
Oc1c(Br)cc(Cl)cc1/C=N/c1ccccn1 [compound 044]	17%	0%	–
Nc1ccc(NC(=O)c2cc(Cl)ccc2O)c(Cl)c1 [compound 043]	18%	2%	–
Cc1ccc(N/C=C2\C(=O)Nc3ccccc32)cc1C [15_14]	–	–	IC50 (ecNadD): 88 µM; inhibition at 100 µM (ecNadD): 12%; IC50 (baNadD; IC50 baNadD): 74 µM; inhibition at 50 µM (baNadD): 70%
Nc1c(C(=O)Nc2ccc(F)c(F)c2)sc2nc(-c3cccs3)ccc12 [03_14]	–	–	IC50 (ecNadD): 117 µM; inhibition at 100 µM (ecNadD): 46%; IC50 (baNadD; IC50 baNadD): 38 µM; inhibition at 50 µM (baNadD): 92%

SMILES	[…]. coli (ecNadD)	[…]. anthracis (baNadD)	also measured
COc1cc(OC)cc(-c2cn[nH]c2N)c1 [compound 090]	10%	0%	–
NS(=O)(=O)c1ccc2nc(NC(=O)c3ccncc3)sc2c1 [compound 059]	15%	0%	–
O=C(O)c1ccc(-c2ccccc2F)o1 [compound 234]	0%	0%	–
O=C(O)c1cc(NC(=O)c2ccc(Cl)cc2Cl)cc(C(=O)O)c1 [compound 209]	0%	0%	–
NS(=O)(=O)c1ccc(NC(=S)NCCc2c[nH]c3ccccc23)cc1 [compound 206]	0%	25%	–
N=C(N)N/N=C/c1ccc([N+](=O)[O-])cc1 [compound 078]	12%	0%	–
O=C(O)c1[nH]c2ccc(Cl)cc2c1-c1ccccc1 [compound 185]	2%	40%	–
O=C(O)c1ccc2nc(-c3ccc(O)cc3)sc2c1 [compound 277]	0%	0%	–
O=C(CSc1nc2ccccc2o1)Nc1ccc(Cl)cn1 [compound 077]	12%	0%	–
O=C(/C=C/c1ccc2c(c1)OCO2)Nc1ncc([N+](=O)[O-])s1 [compound 049]	16%	10%	–
O=C(CSc1nc2ccccc2o1)Nc1nncs1 [compound 229]	0%	0%	–
O=C(O)CNC(=S)N(Cc1ccccc1)Cc1cccs1 [compound 154]	5%	0%	–
O=C(CSc1nnc(-c2ccncc2)[nH]1)Nc1ccccc1Cl [compound 100]	9%	0%	–
CSc1ccc(N/C=C2\C(=O)Nc3ccccc32)cc1 [15_12]	–	–	inhibition at 100 µM (ecNadD): 12%; inhibition at 50 µM (baNadD): 25%
Nc1c(C(=O)Nc2ccc(F)c(F)c2)sc2nc(-c3ccc(F)cc3)ccc12 [03_24]	–	–	IC50 (ecNadD): > 200 µM; inhibition at 100 µM (ecNadD): 9%; IC50 (baNadD; IC50 baNadD): > 200 µM; inhibition at 50 µM (baNadD): 5%
Nc1c(C(=O)Nc2cccc(Cl)c2)sc2nc(-c3ccc(F)cc3)ccc12 [03_16]	–	–	IC50 (ecNadD): 50 µM; inhibition at 100 µM (ecNadD): 46%; IC50 (baNadD; IC50 baNadD): 35 µM; inhibition at 50 µM (baNadD): 83%
NC(=O)c1sc2nc(-c3ccc(F)cc3)cc(-c3ccccc3)c2c1N [03_21]	–	–	inhibition at 100 µM (ecNadD): 22%; inhibition at 50 µM (baNadD): 58%
Cc1ccc(S(=O)(=O)/N=C(/NCC(=O)O)c2ccccc2)cc1 [compound 211]	0%	42%	–
O=C(O)c1cccc(NCN2C(=O)c3ccccc3C2=O)c1 [compound 027]	23%	0%	–
CCOC(=O)c1cc(-c2ccc(C)cc2)[nH]n1 [compound 106]	9%	0%	–

SMILES	[…]. coli (ecNadD)	[…]. anthracis (baNadD)	also measured
O=C(O)c1ccccc1NC1=NS(=O)(=O)c2ccccc21 [compound 132]	6%	25%	–
CC(=NNC(=O)CCC(=O)Nc1ccc(Br)cc1)c1ccc2ccccc2c1 [compound 200]	0%	76%	–
CN(C)c1ccc(N/C=C2\C(=O)Nc3ccccc32)cc1 [15_03]	–	–	inhibition at 100 µM (ecNadD): 19%; inhibition at 50 µM (baNadD): 27%
NC(N)=NS(=O)(=O)c1ccc(NC(=O)c2cccc([N+](=O)[O-])c2)cc1 [compound 268]	0%	0%	–
O=C(CCC(=O)Nc1ccc(Br)cc1)N/N=C/c1ccc(F)cc1 [01_15]	–	–	inhibition at 100 µM (ecNadD): 47%; IC50 (baNadD; read-out: IC50 baNadD): 122 µM; inhibition at 50 µM (baNadD): 22%
Nc1c(C(=O)Nc2ccc(Cl)cc2Cl)sc2nc(-c3cccs3)ccc12 [03_11]	–	–	IC50 (ecNadD): 30 µM; inhibition at 100 µM (ecNadD): 54%; IC50 (baNadD; IC50 baNadD): 13 µM; inhibition at 50 µM (baNadD): 90%
C=CCSc1nnc(-c2cc(Br)ccc2N)c(O)n1 [compound 187]	2%	0%	–
Nc1nc(-c2cc([N+](=O)[O-])cc([N+](=O)[O-])c2)n[nH]1 [compound 253]	0%	7%	–
CC(=O)Nc1ccc(S(=O)(=O)Nc2ccc(Cl)cc2Cl)cc1 [compound 008]	47%	0%	–
O=C(N/N=C/c1ccccc1Cl)c1cccnc1 [compound 202]	0%	32%	–
Cc1c(Cl)cccc1N/C=C1\C(=O)Nc2ccccc21 [15_13]	–	–	inhibition at 100 µM (ecNadD): 12%; inhibition at 50 µM (baNadD): 36%
O=S(=O)(N/N=C/c1cccc(OC2CSC2)c1)c1ccccc1 [compound 292]	0%	0%	–
O=C(O)c1cc(NS(=O)(=O)c2cccc3nsnc23)cc(C(=O)O)c1 [compound 153]	5%	0%	–
CC(=O)c1ccc(N/C=C2/C(=O)Nc3ccccc32)cc1 [15_42]	–	–	inhibition at 100 µM (ecNadD): 0%; inhibition at 50 µM (baNadD): 11%
O=S(=O)(NCc1cccs1)c1ccc(Br)cc1 [compound 188]	1%	0%	–
N=C(N)NNC(=S)Nc1ccc(Cl)cc1 [compound 013]	30%	0%	–
Cc1cc(N/C=C2\N=C(c3ccc(Cl)cc3)OC2=O)no1 [compound 066]	13%	80%	–
O=C(CSS(=O)(=O)O)NCCc1c[nH]c2ccccc12 [compound 072]	12%	0%	–
COCCNS(=O)(=O)c1ccc2c(c1)CCN2C(=O)CCC(=O)O [compound 196]	1%	52%	–
